Where two headings read alike, the source gives them in different places.
What was measured:
Format in all cases: cell-based
[1] = tested on: EZH2 transcription; test: Ability to decrease EZH2 mRNA level in A375 (dose-response, quantitative PCR); conditions: Homo sapiens, A-375, 96 h; A375 cells, incubated 4 days; read-out: IC50 (concentration necessary to obtain 50% of EZH2 transcription activity)
Protocol: Typically, 30000-50000 cells were plated in six-well culture plates and incubated 24 h later with increasing concentration of NIK inhibitors or vehicle. Cells were incubated with the inhibitors for 4 days prior to harvesting for RNA extraction and PCR. Total RNA was isolated from cells using the RNAeasy minikit (Qiagen) according to the manufacturer's procedure. Reverse transcription was performed using the AMV reverse transcription system (Promega), and quantitative PCR was performed with Power Sybr green (Applied Biosystems, Life Technologies, Grand Island, N.Y.) following the manufacturer's instructions. The PCR was carried out on a Step One plus Real-Time PCR system (Applied Biosystems). All analyses were done in triplicate, and a melting curve analysis was performed to control for product quality and specificity. Expression levels were calculated using the comparative method of relative quantification, with SB34 as a normalizer. The data were analyzed for statistical significance using Student's t-test. The results are presented as the mean±SEM relative to the control. Primers were obtained from primer bank or primer depot (http://pga.mgh.harvard.edu/primerbank/, https://primerdepot.nci.nih.gov), and their specificity was verified using primer blast (http://www.ncbi.nlm.nih.gov/tools/primer-blast/).
Here IC50 represents the concentration necessary to obtain 50% of EZH2 transcription activity.

[2] = tested on: A375 cells; test: A375 cell proliferation assay (trypan blue exclusion); conditions: Homo sapiens, A-375, treated/untreated cell number; for activity at 1 µM: A375, 1 μM; for activity at 10 µM: A375, 10 μM
Protocol: Cells were counted using a Malassez chamber. The average and standard deviation were calculated from triplicate experiments. Antiproliferative effects were evaluated by trypan blue exclusion assay. Briefly, cells were seeded into 12-well plate and grown in media supplemented with indicated compound at 1 or 10 μM for 48 h or 96 h. Cells were washed with PBS and detached by trypsinization, collected and colored by trypan blue. Dead and living cells were counted and proliferation was calculated as follow: Proliferation (%)=[(treated cell number/untreated cells number)*100].

[3] = tested on: normal human fibroblast; test: Fibroblast viability assay (trypan blue exclusion); conditions: 96 h
Protocol: (§1) Cell viability effects were evaluated by trypan blue exclusion assay. Briefly, cells were seeded into 12-well plate and grown in media supplemented with indicated compound at 10 μM for 96 h. Cells were washed with PBS and detached by trypsinization, collected and colored by trypan blue. Dead and living cells were counted and cell viability was calculated as follow: Viability (%)=100−[(dead cell number/total cells)*100].

[4] = tested on: normal human melanocyte; test: Melanocyte viability assay (trypan blue exclusion); conditions: 96 h
Protocol: as §1

[5] = 48 h, read-out: Proliferation (%) At 1 μM - 48 H
[6] = 96 h, read-out: Proliferation (%) At 1 μM - 96 H
[7] = 48 h, read-out: Proliferation (%) At 10 μM - 48 H
[8] = 96 h, read-out: Proliferation (%) At 10 μM - 96 H

SMILES | IC50 [1] | activity at 1 µM [2, 5] | activity at 1 µM [2, 6] | activity at 10 µM [2, 7] | activity at 10 µM [2, 8] | Viability (%) at 10 μM Fibroblast [3] | Viability (%) at 10 μM Melanocyte [4]
Cc1ccc(Nc2ccnc3cc(Cl)ccc23)cc1 [Compound 2, 4-((4-methylphenyl)amino)-7-chloroquinolinium chloride] | 10 µM |  |  |  |  |  | 
COc1cccc(Nc2ccnc3cc(Cl)ccc23)c1 [Compound 6, 4-((3-methoxyphenyl)amino)-7-chloroquinolinium chloride] | 15 µM |  |  |  |  |  | 
Oc1ccc(Nc2ccnc3cc(Cl)ccc23)cc1 [Compound 7, 4-((4-hydroxyphenyl)amino)-7-chloroquinolinium chloride] |  | 84.6% | 91.1% | 95.2% | 79.4% | 97.7% | 99.1%
Oc1ccc(Nc2ccnc3cc(Cl)ccc23)cc1Cl [Compound 8, 4-((4-hydroxy-3-chlorophenyl)amino)-7-chloroquinolinium chloride] | 15 µM | 81.3% | 74% | 82.1% | 67.5% | 98.6% | 98.0%
COc1ccc(Nc2ccnc3cc(N4CCOCC4)ccc23)cc1 [Compound 13, N-(4-methoxyphenyl)-7-morpholinoquinolin-4-amine] | 15 µM |  |  |  |  |  | 
Oc1ccc(Nc2ccc3c(Nc4cc(F)cc(F)c4)ccnc3c2)cc1Cl [Compound 19, 2-chloro-4-((4-((3,5-difluorophenyl)amino)quinolin-7-yl)amino)phenol] |  | 74.7% | 74.9% | 0.4% | 0% |  | 
COc1cccc(Nc2ccc3c(Nc4cc(F)cc(F)c4)ccnc3c2)c1 [Compound 26, N^4-(3,5-difluorophenyl)-N^7-(3-methoxyphenyl)quinolin-4,7-diamine] |  | 54.9% | 9.9% | 0.4% | 0% |  | 
COc1ccc(Nc2cc(OC)nc3cc(Cl)ccc23)cc1 [Compound 27, 7-chloro-2-methoxy-N-(4-methoxyphenyl)quinolin-4-amine] |  | 98.7% | 85.6% | 67.8% | 21.8% | 93.9% | 76.9%
COc1ccc(Nc2cc(N3CCOCC3)nc3cc(Cl)ccc23)cc1OC [Compound 28, 7-chloro-N-(3,4-dimethoxyphenyl)-2-morpholinoquinolin-4-amine] |  | 98.4% | 87.8% | 92% | 82.8% | 95.7% | 99.1%
COc1ccc(Nc2cc(N3CCN(C)CC3)nc3cc(Cl)ccc23)cc1OC [Compound 29, 7-chloro-N-(3,4-dimethoxyphenyl)-2-(4-methylpiperazin-1-yl)quinolin-4-amine] |  | 89.6% | 87.6% | 67.2% | 4.8% | 41.6% | 91.2%
COc1ccc(Nc2cc(N3CCOCC3)nc3cc(Cl)ccc23)cc1 [Compound 30, 7-chloro-N-(4-methoxyphenyl)-2-morpholinoquinolin-4-amine] |  | 88% | 73.2% | 87.2% | 37% | 96.4% | 94.2%
COc1ccc(Nc2cc(N3CCN(C)CC3)nc3cc(Cl)ccc23)cc1 [Compound 31, 7-chloro-N-(4-methoxyphenyl)-2-(4-methylpiperazin-1-yl)quinolin-4-amine] |  | 106% | 83.3% | 37.6% | 3.39% | 29.6% | 33.1%
COc1ccc(Nc2cc(OCCN3CCOCC3)nc3cc(Cl)ccc23)cc1OC [Compound 32, 7-chloro-N-(3,4-dimethoxyphenyl)-2-(2-morpholinoethoxy)quinolin-4-amine] |  | 96% | 84.5% | 100% | 82.2% | 99.4% | 98.6%
COc1cc(Nc2ccc(OC)c(OC)c2)c2ccc(Cl)cc2n1 [Compound 33, 7-chloro-N-(3,4-dimethoxyphenyl)-2-methoxyquinolin-4-amine] |  | 106% | 97.2% | 102% | 95.2% | 97.7% | 60.1%
FC(F)Oc1ccc(Nc2ccnc3cc(Cl)ccc23)cc1 [Compound 34, 7-chloro-N-(4-(difluoromethoxy)phenyl)quinolin-4-amine] |  | 96% | 98.6% | 77.6% | 37.9% | 98.3% | 98.7%
COCCOc1cc(Nc2ccnc3cc(Cl)ccc23)ccc1OC [Compound 35, 7-chloro-N-(4-methoxy-3-(2-methoxyethoxy)phenyl)quinolin-4-amine] |  | 104% | 85.3% | 84.7% | 79.9% | 99.5% | 99.1%
FC(F)(F)Oc1ccc(Nc2ccnc3ccc(Cl)cc23)cc1 [Compound 36, 6-chloro-N-(4-(trifluoromethoxy)phenyl)quinolin-4-amine] |  | 105% | 97.7% | 49.7% | 9.89% | 92.1% | 73.4%
COc1ccc(Nc2ccnc3ccc(Cl)cc23)c(OC)c1 [Compound 37, 6-chloro-N-(2,4-dimethoxyphenyl)quinolin-4-amine] |  | 84% | 87.4% | 80.5% | 53% | 94.6% | 98.7%
COc1ccc(Nc2ccnc3cc(Cl)ccc23)cc1OC [Compound 38, 7-chloro-N-(3,4-dimethoxyphenyl)quinolin-4-amine] |  | 90.8% | 46.9% | 33.5% | 15.7% | 93.3% | 99.2%
COc1ccc(Nc2ccnc3cc(Cl)ccc23)c(OC)c1 [Compound 39, 7-chloro-N-(2,4-dimethoxyphenyl)quinolin-4-amine] |  | 88.3% | 34.3% | 18.1% | 13.6% | 100.0% | 99.5%

— patent US20200181089A1, “4-ANILINO-QUINOLINE COMPOUNDS AS ANTI-CANCER AGENTS” (INSERM (INSTITUT NATIONAL DE LA SANTÉ ET DE LA RECHERCHE …, priority 2016, published 2020)
